Source: ChEMBL document CHEMBL1201862, “PubChem BioAssay data set” (2004)
Active and inactive are the calls of the source.

Experiments:
H9c2 = experiment: cells; assay type: functional, cell-based; conditions: Rattus norvegicus, H9c2, Myocardium;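 also: confirmatory concentration-response retest of ultra-high-throughput screening hits for modulation of myocardial damage; cell death induced by hydrogen peroxide oxidative stress; compound pretreatment for 60 min then peroxide exposure for 2 h; potency is for protecting the cells against peroxide damage rather than for killing them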
Cytochrome P450 3A4 = Cytochrome P450 3A4 (Homo sapiens, UniProt P08684);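 also: CYP3A4 tested as one member of a cytochrome P450 panel screen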
Cytochrome P450 3A4, sequence (P08684 whole entry): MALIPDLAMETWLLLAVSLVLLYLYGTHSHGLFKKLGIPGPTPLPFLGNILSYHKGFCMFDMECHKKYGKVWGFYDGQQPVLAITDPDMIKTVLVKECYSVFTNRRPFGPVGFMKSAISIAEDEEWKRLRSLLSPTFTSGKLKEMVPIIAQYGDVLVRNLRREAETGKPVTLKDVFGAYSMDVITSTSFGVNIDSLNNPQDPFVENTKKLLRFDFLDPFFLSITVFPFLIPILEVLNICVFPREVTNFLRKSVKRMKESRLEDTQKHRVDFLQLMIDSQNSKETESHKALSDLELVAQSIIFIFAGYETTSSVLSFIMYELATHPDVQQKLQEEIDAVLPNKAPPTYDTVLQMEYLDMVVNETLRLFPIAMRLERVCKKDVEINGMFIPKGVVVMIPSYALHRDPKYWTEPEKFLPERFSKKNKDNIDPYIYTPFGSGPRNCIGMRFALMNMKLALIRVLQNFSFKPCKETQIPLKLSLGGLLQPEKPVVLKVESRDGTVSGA

Cytochrome P450 2C9 = Cytochrome P450 2C9 (Homo sapiens, UniProt P11712)
Cytochrome P450 2C9, sequence (P11712 whole entry): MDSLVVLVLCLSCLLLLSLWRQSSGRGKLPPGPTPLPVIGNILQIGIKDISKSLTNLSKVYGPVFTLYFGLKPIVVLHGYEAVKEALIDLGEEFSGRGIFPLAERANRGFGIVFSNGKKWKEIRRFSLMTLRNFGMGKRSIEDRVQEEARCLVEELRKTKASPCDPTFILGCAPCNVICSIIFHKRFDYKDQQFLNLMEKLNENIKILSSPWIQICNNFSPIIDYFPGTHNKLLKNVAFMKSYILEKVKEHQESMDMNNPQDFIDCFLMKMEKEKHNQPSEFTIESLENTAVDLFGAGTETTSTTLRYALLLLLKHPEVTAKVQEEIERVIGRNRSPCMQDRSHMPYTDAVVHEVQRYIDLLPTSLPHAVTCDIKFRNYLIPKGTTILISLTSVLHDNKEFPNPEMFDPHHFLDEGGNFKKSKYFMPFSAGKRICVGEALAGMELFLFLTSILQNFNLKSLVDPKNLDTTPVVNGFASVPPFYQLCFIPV

Cytochrome P450 2C19 = Cytochrome P450 2C19 (Homo sapiens, UniProt P33261); experiment: Cytochrome panel assay with activity outcomes. Panel member name: p450-cyp2c19 Compounds with AC50 equal or less than 10 uM are considered active; assay type: functional; conditions: read-out: AC50
Cytochrome P450 2C19, sequence (P33261 whole entry): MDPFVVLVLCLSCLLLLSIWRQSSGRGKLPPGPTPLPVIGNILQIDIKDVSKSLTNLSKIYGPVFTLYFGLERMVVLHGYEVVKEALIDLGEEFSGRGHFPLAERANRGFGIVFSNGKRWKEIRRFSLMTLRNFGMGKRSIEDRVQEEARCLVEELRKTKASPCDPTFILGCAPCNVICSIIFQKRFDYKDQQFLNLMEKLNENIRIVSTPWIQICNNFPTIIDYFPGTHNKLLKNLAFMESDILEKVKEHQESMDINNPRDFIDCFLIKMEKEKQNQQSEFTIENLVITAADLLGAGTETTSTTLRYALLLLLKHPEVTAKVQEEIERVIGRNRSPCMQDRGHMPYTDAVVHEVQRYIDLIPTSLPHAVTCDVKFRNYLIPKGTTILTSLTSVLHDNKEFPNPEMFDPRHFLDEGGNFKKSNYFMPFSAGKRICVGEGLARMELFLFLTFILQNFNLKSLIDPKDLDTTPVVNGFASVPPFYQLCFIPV

[1] = system: Streptococcus sp. 'group A'; experiment: growth inhibition of control SK(-) GAS strain, dose response, counter-screen for streptokinase expression inhibitor project, luminescence, kanamycin, BacTiterGlo, confirmation (AID 1900); assay type: functional, organism-based
Streptococcus = experiment: Group A Streptococcus viability loss, dose response, counter-screen for streptokinase expression inhibitor project, luminescence, BacTiterGlo (AID 1915); assay type: functional, organism-based;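 also: potency for reduction of bacterial viability or growth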
Streptokinase A = target: T1, Streptokinase A (Streptococcus pyogenes serotype M1, UniProt P10520); experiment: S. pyogenes streptokinase expression inhibitors, potency, dose response, plasminogen activation absorbance, OD405 (AID 1914); assay type: functional, Streptococcus pyogenes M1 GAS;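 also: secreted streptokinase activity via plasminogen activation per viability signal from cell pellet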
T1 sequence (P10520 whole entry): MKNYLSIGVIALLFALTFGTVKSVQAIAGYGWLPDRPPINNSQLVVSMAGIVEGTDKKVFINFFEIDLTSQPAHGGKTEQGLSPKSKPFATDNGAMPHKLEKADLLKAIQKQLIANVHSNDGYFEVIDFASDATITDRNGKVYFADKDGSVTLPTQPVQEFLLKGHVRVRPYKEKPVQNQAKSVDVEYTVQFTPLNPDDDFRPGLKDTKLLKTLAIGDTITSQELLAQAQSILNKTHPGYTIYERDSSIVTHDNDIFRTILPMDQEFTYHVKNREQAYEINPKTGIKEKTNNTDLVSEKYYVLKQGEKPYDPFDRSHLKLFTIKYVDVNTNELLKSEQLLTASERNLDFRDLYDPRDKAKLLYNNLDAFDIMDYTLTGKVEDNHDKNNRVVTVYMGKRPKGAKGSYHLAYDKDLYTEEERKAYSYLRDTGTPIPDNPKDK

[2] = target: T2, Rac GTPase-activating protein 1 (Homo sapiens, UniProt Q9H0H5); experiment: MgcRacGAP GTPase-activating activity inhibitors, confirmation, biochemical, ADP Hunter fluorescence, primary and confirmatory (AID 624330); assay type: functional
T2 sequence (Q9H0H5 whole entry): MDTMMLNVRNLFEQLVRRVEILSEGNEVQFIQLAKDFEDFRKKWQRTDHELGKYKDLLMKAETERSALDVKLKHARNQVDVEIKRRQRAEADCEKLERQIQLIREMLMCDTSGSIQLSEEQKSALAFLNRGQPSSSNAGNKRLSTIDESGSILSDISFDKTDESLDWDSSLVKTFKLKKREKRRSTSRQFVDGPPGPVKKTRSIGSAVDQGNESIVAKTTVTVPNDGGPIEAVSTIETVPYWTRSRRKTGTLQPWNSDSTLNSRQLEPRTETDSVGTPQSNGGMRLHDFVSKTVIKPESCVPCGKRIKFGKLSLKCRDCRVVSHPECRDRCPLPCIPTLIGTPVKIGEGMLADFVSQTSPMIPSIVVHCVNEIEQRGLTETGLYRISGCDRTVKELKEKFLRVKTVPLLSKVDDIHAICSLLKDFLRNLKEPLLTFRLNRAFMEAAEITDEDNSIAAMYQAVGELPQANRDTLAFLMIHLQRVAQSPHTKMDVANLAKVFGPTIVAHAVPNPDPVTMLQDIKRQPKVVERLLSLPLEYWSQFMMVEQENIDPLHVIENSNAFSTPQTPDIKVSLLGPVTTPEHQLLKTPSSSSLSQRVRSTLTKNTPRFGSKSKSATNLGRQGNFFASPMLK

INS1 = experiment: beta cell apoptosis inhibitors, cytokine rescue, dose response, luminescence, retest (AID 449756); assay type: functional, cell-based; conditions: Rattus norvegicus;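 also: cell death triggered by IL-1 beta plus TNF-alpha plus IFN-gamma mixture; protective hits raise ATP signal compared with cytokine alone wells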
[3] = target: T3, RNA-binding protein pos-1 (Caenorhabditis elegans, UniProt G5EF15); experiment: inhibitors of POS-1/mex-3 RNA binding, dose response, biochemical, fluorescence polarization (AID 1964);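 also: purified POS-1 fused to maltose binding protein made in E. coli; potency of compounds blocking POS-1 binding to fluorescent RNA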
T3 sequence (G5EF15 whole entry): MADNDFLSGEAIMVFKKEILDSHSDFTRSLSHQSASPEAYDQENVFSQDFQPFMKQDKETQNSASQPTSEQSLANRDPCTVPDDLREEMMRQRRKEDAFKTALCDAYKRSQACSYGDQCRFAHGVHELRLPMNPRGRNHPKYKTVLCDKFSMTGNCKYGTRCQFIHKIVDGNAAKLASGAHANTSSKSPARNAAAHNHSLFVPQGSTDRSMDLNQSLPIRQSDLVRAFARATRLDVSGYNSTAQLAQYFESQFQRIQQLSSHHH

[4] = target: T4, Zinc finger protein mex-5 (Caenorhabditis elegans, UniProt Q9XUB2); experiment: MEX-5/TCR-2 RNA interaction inhibitors, dose response, biochemical, C. elegans, fluorescence polarization (AID 1960)
T4 sequence (Q9XUB2 whole entry): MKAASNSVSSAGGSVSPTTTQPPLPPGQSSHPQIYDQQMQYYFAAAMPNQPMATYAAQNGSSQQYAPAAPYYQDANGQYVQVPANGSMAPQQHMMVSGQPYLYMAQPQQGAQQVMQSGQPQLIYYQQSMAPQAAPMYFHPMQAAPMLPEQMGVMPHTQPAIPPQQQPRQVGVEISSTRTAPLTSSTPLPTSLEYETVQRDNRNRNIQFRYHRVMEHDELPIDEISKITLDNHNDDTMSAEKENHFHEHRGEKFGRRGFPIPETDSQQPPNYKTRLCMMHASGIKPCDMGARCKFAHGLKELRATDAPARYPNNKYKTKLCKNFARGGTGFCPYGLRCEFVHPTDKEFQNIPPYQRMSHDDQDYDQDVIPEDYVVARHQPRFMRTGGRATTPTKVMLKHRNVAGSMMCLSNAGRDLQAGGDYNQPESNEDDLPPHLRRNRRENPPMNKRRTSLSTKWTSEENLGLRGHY

In the case of `O=C(CN1CCN(S(=O)(=O)c2cc(Cl)ccc2Cl)CC1)c1ccc(O)c(O)c1`, the IC50 (H9c2) was > 79 µM (inactive).
For `FC(F)(F)c1ccccc1-c1ccc2ncnc(N3CCOCC3)c2c1`, the AC50 (Cytochrome P450 3A4) was 5.01 µM (inconclusive).
`CC1Cc2ccccc2N1C(=O)Cn1cc([N+](=O)[O-])cn1` (stereo unspecified) was tested, and the AC50 (Cytochrome P450 2C9) was 39.8 µM (inconclusive) and the AC50 (Cytochrome P450 2C19) was 11.2 µM (inconclusive).
For `Cc1cc(-c2ccccc2)nc(O)c1S(=O)(=O)c1ccc(Cl)cc1`, the AC50 (Cytochrome P450 2C9) was 3.55 µM (inconclusive) and the AC50 (Cytochrome P450 2C19) was 5.62 µM (inconclusive).
With `CCc1nnc(NC(=O)c2ccc(S(=O)(=O)N(C)c3ccccc3)cc2)o1` the EC50 [1] was 7.35 µM (active), the EC50 (Streptococcus) was 8.72 µM (active) and the EC50 (Streptokinase A) was > 150 µM (not active).
In the case of `COc1ccc2nc(O)c(CNc3ccc(C)c(C)c3)cc2c1`, the IC50 (H9c2) was > 79 µM (inactive).
In the case of `Cc1cccc(C)c1OC(=O)C(c1ccccc1)c1ccccc1`, the EC50 [1] was 9.04 µM (active), the EC50 (Streptococcus) was > 150 µM (not active) and the EC50 (Streptokinase A) was 17 µM (active).
For `CCOC(=O)c1cc(-c2nnc(-c3cc(OC)c(OC)c(OC)c3)o2)c(C)nc1C`, the IC50 (H9c2) was > 79 µM (inactive).
With `O=C(Cc1ccc(Br)cc1)OCC(=O)c1ccc2c(c1)OCCO2` the AC50 (Cytochrome P450 2C9) was 7.94 µM (inconclusive).
For `CCn1nc(CC(C)C)cc1C(=O)N1CCCC(Nc2ccc(OC)cc2)C1` (stereo unspecified), the IC50 [2] was 121 µM (active).
`COC(=O)c1c(NC(=O)c2ccn(C)n2)sc2c1CCC2` was tested, and the EC50 [1] was > 150 µM (not active), the EC50 (Streptococcus) was > 150 µM (not active) and the EC50 (Streptokinase A) was > 150 µM (not active).
With `COc1ccc(-c2nc3cnc(N4CCN(C)CC4)nc3n(CCC#N)c2=O)cc1` the AC50 (Cytochrome P450 3A4) was 39.8 µM (inconclusive).
With `CCOC(=O)Cc1cc(O)n2ncc(-c3cccc(Br)c3)c2n1` the EC50 [1] was 2.14 µM (active), the EC50 (Streptococcus) was 18 µM (active) and the EC50 (Streptokinase A) was > 150 µM (not active).
`COCCn1c(=O)cnc2cnc(OCc3ccccc3)nc21` was tested, and the AC50 (Cytochrome P450 3A4) was 20 µM (inconclusive).
With `COC(=O)c1ccc(OCC(=O)Nc2ccccc2C(=O)NC2CC2)cc1` the IC50 (H9c2) was > 79 µM (inactive).
`CC(=O)c1cccc(NC(=O)C(C)OC(=O)CCc2nc(O)c3ccccc3n2)c1` (stereo unspecified) was tested, and the IC50 (H9c2) was 15.7 µM (active).
In the case of `Cc1cccc(N2C(S)=NC(=Nc3c(C)cccc3C)C23CCOC(C)(C)C3)c1` (stereo unspecified), the AC50 (INS1) was 3.8 µM (active).
In the case of `O=C(CN1C(=O)C2CC=CCC2C1=O)Nc1nc(-c2ccc(F)cc2)cs1` (stereo unspecified), the IC50 (H9c2) was > 79 µM (inactive).
In the case of `C=C[C@H](CC(C)C)N(Cc1ccccc1)S(=O)(=O)N(Cc1ccccc1)[C@@H](C=C)CC(C)C`, the AC50 (INS1) was 5.4 µM (active).
In the case of `CC(C)=NNc1cnnc2ccc([N+](=O)[O-])cc12`, the IC50 (H9c2) was 8.8 µM (active).
With `COC(=O)c1[nH]c2cc(OC)c(OC)cc2c1/C=N/Nc1ccccc1` the EC50 [3] was 20 µM (active), the IC50 (H9c2) was > 79 µM (inactive) and the EC50 [4] was 20.3 µM (inconclusive).
For `C/C(=N/NC(=O)c1cccs1)c1cccc(NC(=O)C2CC2)c1`, the IC50 (H9c2) was > 79 µM (inactive).
`Clc1nc2sccn2c1/C=N/n1cnc2ccccc21` was tested, and the IC50 (H9c2) was > 79 µM (inactive).
With `C/C(=N\Nc1nc2ccc(Cl)cc2o1)c1ccccc1` the EC50 [1] was 6.79 µM (active), the EC50 (Streptococcus) was > 150 µM (not active) and the EC50 (Streptokinase A) was > 150 µM (not active).
With `N[C@@H](C(=O)O)[C@H](CC(=O)O)c1ccc(Cl)cc1` the AC50 (Cytochrome P450 2C9) was 39.8 µM (inconclusive) and the AC50 (Cytochrome P450 2C19) was 25.1 µM (inconclusive).
With `CN(C)c1ccccc1CN1CCCN(Cc2ccccc2N(C)C)C1c1ccncc1` the AC50 (Cytochrome P450 3A4) was 3.16 µM (inconclusive).
